Results from US20190119193A1, “COMPOSITION FOR REGULATING PLANT GROWTH, METHOD FOR TREATING PLANTS THEREWITH, AND ACTIVE INGREDIENT THEREOF” (Ivan Aleksandrovich Starikov, priority 2016, published 2019).
Each block holds one compound with its values, some of them ahead of it.

Experiments:
[1] = Dilution of DMSO solution (10 g/L) in water; type: physicochemical; settings: solution in DMSO (10 g/L) diluted in large quantities of water
[2] = test system: spring wheat of “Zlata” variety; assay: Field tests of GS-200 on wheat; type: in vivo
Protocol: After that GS-200 were dissolved in dimethyl sulfoxide to give solution of 10 g/L concentration, then water was added to give aqueous solutions of GS-200 with concentrations of 5.3·10^−7 M, 1.7·10^−8 M, 5.3·10^−9 M, 1.7·10^−10 M, 5.3·10^−11 M, 1.7·10^−12 M.
The field tests of the obtained aqueous solutions of GS-200 on spring wheat of “Zlata” variety were carried out. The tests were carried out in agroclimatic zone I, on the experimental field of the Moscow RIA «Nemchinovka» Agricultural technology center's Laboratory for the Development of Grain Protection Systems (Moscow region, Odintsovo district, Novoivanovskoe, 2017), according to the method adopted for registration tests of plant growth regulators: Methodology guidelines for approval tests of new fertilizers, bioregulators and plant regulators. Moscow-Vladimir, 2009, p. 104; State procedure of strain tests for agricultural crop. Corny, leguminous and forage cultures. Edition 1, M., 1985—p. 269, Edition 2, M., 1989—p. 194; State procedure of strain tests for agricultural crop. Corny, leguminous and forage cultures. Edition 1, M., 1985—p. 269, Edition 2, M., 1989—p. 194; All-Union Standard 10-108-87; All-Union State Standard 26212-91; All-Union State Standard 26207-91; All-Union Standard 10-108-87.
The soil of the testing ground is sod-podzolic on the covering silt. The depth of the topsoil is 27-30 centimeters, humus content is up to 2.2%, pHsalt is about 5.8-5.9, labile phosphorus index is 135-145 mg/kg, and exchange potassium index is 100-110 mg/kg.
Tests were conducted from Apr. 24 to Aug. 17, 2017. The weather conditions of the whole growing period were highly unfavorable (normal amount of precipitations was exceeded more than one and a half times; the temperature was much lower than long-term annual average), which is a strong stress factor.
Control test—without treatment with growth regulators.
Area of experimental plots—50 m^2, accounting area—40 m^2. Fourfold replication of the experiments.
Preceding crop was winter wheat. Immediately after the autumn harvesting of winter crops the area was treated with disc harrow to a depth of 10-12 cm. Then, fall plowing to a depth of 18-21 cm by a reverse plow and harrowing were carried out.
Before seeding the test crop, the soil was fertilized with nitrogen-phosphorus-potassium fertilizer in a dose of N64P64K64. Date of sowing: Apr. 24, 2017. Seeding rate: 5.5 million of germinated grains per 1 hectare.
Before seeding, all the seeds were treated with “Vincite Forte” fungicide with a consumption rate of 0.8 L per ton of seeds, as well as the aqueous solution of GS-200 selected for the experiment with a consumption rate of 10 L per ton of seeds (this aqueous solution was directly used as a liquid for treatment) or without a growth regulator, depending on the experiment. The following concentrations of the GS-200 solutions were used for treatment: 5.3·10^−7 M, 5.3·10^−9 M, […].
At the tillering phase (May 29-30) the crops were sprayed against weeds with “Linthur” herbicide at a dose of 175.0 g/ha. In the beginning of booting stage (June 12-13), in order to prevent blasts and leaf diseases, crops were sprayed with tank mixture of insecticide “BoreiNeo” in a dose 0.5 L/ha and fungicide “Alto Super” in a dose 0.5 L/ha. In the beginning of ear stage (June 28) crops on the testing ground were sprayed with tank mixture of fungicide “Rakurs” (against Septoria blight and Fusarium blight) in a dose 0.5 L/ha and a solution of GS-200 in a dose 300 L/ha. Spraying with aqueous solutions of GS-200 was carried out for all variants, where GS-200 were used for seed treatment. The concentration of the spraying solution was one-thirtieth of the concentration of the solution previously used for treatment of seeds: 1.7·10^−8 M, 1.7·10^−10 M and 1.7·10^−12 M respectively.
Harvesting of experimental plots was carried out on August 17, before harvesting test sheaves of 0.25 m^2 of each variant of the experiment were selected for structural analysis. […]

[3] = seeds treated 5.3 · 10^−7 M, sprayed 1.7·10^−8 M
[4] = seeds treated 5.3 · 10^−9 M, sprayed 1.7·10^−10 M
[5] = seeds treated 5.3 · 10^−11 M, sprayed 1.7·10^−12 M

Compound: COC(=O)C(=O)C(Cl)C(=O)OC (centres unmarked) [GS-172, Dimethyl 2-chloro-3-oxobutanedioate]
Appearance on dilution in water [1]: clear solution

Compound: CCOC(=O)C(=O)C(Sc1ccc(C)cc1)C(=O)OCC (centres unmarked) [GS-184, Diethyl 2-[(4-Methylphenyl)Sulfanyl]-3-Oxobutanedioate]
Appearance on dilution in water [1]: clear solution

Compound: CCOC(=O)C(=O)CC(=O)N(C)C [GS-200, Ethyl 4-(dimethylamino)-2,4-dioxobutanoat]
Appearance on dilution in water [1]: clear solution
1000 grains weight [2, 3]: 45.4 g
Gluten [2, 3]: 27.5 % dry basis
Main head length [2, 3]: 8.24 cm
Number of seeds from main head [2, 3]: 38.84 pcs
Number of spikelets in main head [2, 3]: 15.88 pcs
Number of stems [2, 3]: 450 pcs/m^2
Number of yielding stems [2, 3]: 398 pcs/m^2
Plant height [2, 3]: 121.1 cm
Productive tilling capacity [2, 3]: 1.46
Protein (N 5.7) [2, 3]: 12.21 % dry basis
Starch [2, 3]: 58.40 % dry basis
Total tilling capacity [2, 3]: 1.65
Weight of grains from main head [2, 3]: 1.89 g
Yield [2, 3]: 5.34 t/ha
Yield, % (comparing to control) [2, 3]: 124.8%
1000 grains weight [2, 4]: 47.2 g
Gluten [2, 4]: 26.0 % dry basis
Main head length [2, 4]: 8.20 cm
Number of seeds from main head [2, 4]: 37.40 pcs
Number of spikelets in main head [2, 4]: 15.56 pcs
Number of stems [2, 4]: 462 pcs/m^2
Number of yielding stems [2, 4]: 388 pcs/m^2
Plant height [2, 4]: 118.5 cm
Productive tilling capacity [2, 4]: 1.53
Protein (N 5.7) [2, 4]: 11.56 % dry basis
Starch [2, 4]: 58.66 % dry basis
Total tilling capacity [2, 4]: 1.82
Weight of grains from main head [2, 4]: 1.90 g
Yield [2, 4]: 5.37 t/ha
Yield, % (comparing to control) [2, 4]: 125.5%
1000 grains weight [2, 5]: 44.1 g
Gluten [2, 5]: 26.6 % dry basis
Main head length [2, 5]: 7.56 cm
Number of seeds from main head [2, 5]: 34.28 pcs
Number of spikelets in main head [2, 5]: 15.56 pcs
Number of stems [2, 5]: 398 pcs/m^2
Number of yielding stems [2, 5]: 360 pcs/m^2
Plant height [2, 5]: 118.7 cm
Productive tilling capacity [2, 5]: 1.71
Protein (N 5.7) [2, 5]: 11.82 % dry basis
Starch [2, 5]: 59.05 % dry basis
Total tilling capacity [2, 5]: 1.90
Weight of grains from main head [2, 5]: 1.60 g
Yield [2, 5]: 4.65 t/ha
Yield, % (comparing to control) [2, 5]: 108.6%

Compound: CCOC(=O)C(=O)CC(=O)N(CC)CC [GS-202, Ethyl 4-(diethylamino)-2,4-dioxobutanoat]
Appearance on dilution in water [1]: clear solution

Compound: CCOC(=O)C(=O)CC(=O)c1ccccc1 [GS-310, Ethyl 2,4-dioxo-4-phenylbutanoate]
Appearance on dilution in water [1]: clear solution

Compound: CCOC(=O)C(=O)CC(=O)c1c[nH]c2ccccc12 [GS-312, Ethyl 4-(1H-indol-3-yl)-2,4-dioxobutanoate]
Appearance on dilution in water [1]: bright yellow fluorescent suspension

Results, then the compound that gave them:

Appearance on dilution in water [1]: clear solution
Compound: COC(=O)C(=O)C(C)C(=O)OC (centres unmarked) [GS-171, Dimethyl 2-methyl-3-oxobutanedioate]

Appearance on dilution in water [1]: clear solution
Compound: CCOC(=O)CC(=O)C(=O)OCC [GS-195, Diethyl ester of oxaloacetic acid]

Appearance on dilution in water [1]: clear solution
Compound: CCOC(=O)CC(=O)C(=O)O [GS-197, 4-Ethoxy-2,4-dioxobutanoic acid]

Appearance on dilution in water [1]: clear solution
Compound: CCOC(=O)C(=O)C(C(=O)OCC)c1ccccc1 (centres unmarked) [GS-199, Diethyl 2-oxo-3-phenylbutanedioate]

Appearance on dilution in water [1]: clear solution
Compound: CCN(CC)C(=O)CC(=O)C(N)=O [GS-203, N^4,N^4-Diethyl-2-oxobutanediamide]

Appearance on dilution in water [1]: clear solution
Compound: CN(C)C(=O)C(=O)CC(=O)N(C)CCO [GS-214, N^4-(2-hydroxyethyl)-N^1,N^1,N^4-trimethyl-2-oxobutanediamide]

Appearance on dilution in water [1]: clear solution
Compound: CCOC(=O)C(=O)CC(C)=O [GS-300, Ethyl 2,4-dioxovalerate]

Appearance on dilution in water [1]: clear solution
Compound: COC(=O)C1CNC(=O)C1=O (centres unmarked) [GS-500, Methyl 4,5-dioxopyrrolidine-3-carboxylate]
